Measured values reported in PubChem BioAssay AID330 (DTP/NCI, 2004).
Values joined by “and” are separate entries in the source; they are usually repeats but may differ in a detail not shown here. Identical values can stand only once. Toxic doses and inconclusive results are not listed. How the source made its calls: active means survival T/C of 150% or more; inactive means T/C below 125% in these data.

System: P388 leukemia ip, CD2F1 mice, survival T/C
Assay: NCI In Vivo Anticancer Drug Screen. Data for tumor model P388 Leukemia (intraperitoneal) in CD2F1 (CDF1) mice
Conditions: endpoint: median survival time, higher = longer survival
Method in brief: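 Mice carrying the transplanted tumor received test compound or vehicle. Survival was recorded in each group, and the value is the treated-group measurement divided by that of the vehicle-treated control group.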

[1] = dose: 50.0 mg/kg/injection, schedule: Q01DX005 (ip), vehicle: saline with Tween-80
[2] = dose: 100.0 mg/kg/injection, schedule: Q01DX005 (ip), vehicle: saline with Tween-80
[3] = dose: 200.0 mg/kg/injection, schedule: Q01DX005 (ip), vehicle: saline with Tween-80
[4] = dose: 12.5 mg/kg/injection, schedule: Q01DX009 (ip), vehicle: Klucel (hydroxypropylcellulose) (HPC)
[5] = dose: 25.0 mg/kg/injection, schedule: Q01DX009 (ip), vehicle: Klucel (hydroxypropylcellulose) (HPC)
[6] = dose: 50.0 mg/kg/injection, schedule: Q01DX009 (ip), vehicle: Klucel (hydroxypropylcellulose) (HPC)
[7] = dose: 100.0 mg/kg/injection, schedule: Q01DX009 (ip), vehicle: Klucel (hydroxypropylcellulose) (HPC)
[8] = dose: 6.25 mg/kg/injection, schedule: Q01DX009 (ip), vehicle: saline
[9] = dose: 12.5 mg/kg/injection, schedule: Q01DX009 (ip), vehicle: saline
[10] = dose: 25.0 mg/kg/injection, schedule: Q01DX009 (ip), vehicle: saline
[11] = dose: 50.0 mg/kg/injection, schedule: Q01DX009 (ip), vehicle: saline
[12] = dose: 100.0 mg/kg/injection, schedule: Q01DX009 (ip), vehicle: saline
[13] = dose: 200.0 mg/kg/injection, schedule: Q01DX009 (ip), vehicle: saline

Measured: T/C

CCC12C=CCN3CCC4(c5cc(C6(C(=O)OC)CCCCCc7c6[nH]c6ccccc76)c(OC)cc5N(C)C4C(O)(C(=O)OC)C1OC(C)=O)C32 (stereo not drawn)
inactive: dose: 12.5 mg/kg/injection, schedule: Q01DX001 (ip), vehicle: distilled water + Tween-80 106 % of control | dose: 25.0 mg/kg/injection, schedule: Q01DX001 (ip), vehicle: distilled water + Tween-80 109 % of control | dose: 50.0 mg/kg/injection, schedule: Q01DX001 (ip), vehicle: distilled water + Tween-80 106 % of control | dose: 100.0 mg/kg/injection, schedule: Q01DX001 (ip), vehicle: distilled water + Tween-80 95 % of control | dose: 200.0 mg/kg/injection, schedule: Q01DX001 (ip), vehicle: distilled water + Tween-80 95 % of control

O=c1c2[nH]c3ccccc3sc=2c(=O)n1-c1c(F)c(F)c(F)c(F)c1F
inactive: [1] 109 % of control | [2] 103 % of control | [3] 100 % of control

FC(F)(F)/C([S-])=C(/[S-])C(F)(F)F.FC(F)(F)/C([S-])=C(/[S-])C(F)(F)F.FC(F)(F)/C([S-])=C(/[S-])C(F)(F)F.FC(F)(F)/C([S-])=C(/[S-])C(F)(F)F.[Co+3].[Co+3]
inactive: dose: 33.0 mg/kg/injection, schedule: Q04DX003 (ip), vehicle: other 107 % of control | dose: 50.0 mg/kg/injection, schedule: Q04DX003 (ip), vehicle: other 100 % of control

C=C1C(=O)C23C(OC(=O)CCCCCCCCC)C1CCC2C12COC3(O)C(O)C1C(C)(C)CCC2O (stereo not drawn)
inactive: dose: 3.75 mg/kg/injection, schedule: Q01DX009 (ip), vehicle: saline with Tween-80 103 % of control | dose: 7.5 mg/kg/injection, schedule: Q01DX009 (ip), vehicle: saline with Tween-80 98 % of control | dose: 15.0 mg/kg/injection, schedule: Q01DX009 (ip), vehicle: saline with Tween-80 96 % of control | dose: 30.0 mg/kg/injection, schedule: Q01DX009 (ip), vehicle: saline with Tween-80 106 % of control

CCC=Nc1c(O)cc(-c2ccccc2)n(C)c1=O
inactive: dose: 60.0 mg/kg/injection, schedule: Q01DX005 (ip), vehicle: saline with Tween-80 94 % of control | dose: 120.0 mg/kg/injection, schedule: Q01DX005 (ip), vehicle: saline with Tween-80 100 % of control

COc1cc2c(cc1OC)C1CC(=O)CCN1CC2 (stereo not drawn)
inactive: [4] 111 % of control | [5] 106 % of control | [6] 101 % of control | [7] 107 % of control

NC(=S)NNC(=O)C(Cc1ccccc1)NC(=O)OCc1ccccc1 (stereo not drawn)
inactive: dose: 50.0 mg/kg/injection, schedule: Q01DX009 (ip), vehicle: saline with Tween-80 93 % of control

Cc1ccccc1-n1c(SCC(=O)NC(=O)Nc2cccc(Cl)c2)nc2c(Br)cc(Br)cc2c1=O
inactive: dose: 60.0 mg/kg/injection, schedule: Q01DX005 (ip), vehicle: Klucel (hydroxypropylcellulose) (HPC) 99 % of control | dose: 120.0 mg/kg/injection, schedule: Q01DX005 (ip), vehicle: Klucel (hydroxypropylcellulose) (HPC) 101 % of control | dose: 240.0 mg/kg/injection, schedule: Q01DX005 (ip), vehicle: Klucel (hydroxypropylcellulose) (HPC) 87 % of control

CCOC(=O)NP1(=O)NCc2ccccc2CN1
inactive: [1] 103 % of control | [2] 99 % of control | [3] 90 % of control

CCCNC(=O)NC1CC(=O)N(CCC)C1=O (stereo not drawn)
inactive: [1] 93 % of control | [2] 100 % of control | [3] 102 % of control

Cc1ccccc1Nc1ccc([N+](=O)[O-])c2nonc12
inactive: [1] 103 % of control | [2] 98 % of control | [3] 92 % of control

c1ccc(-c2[nH]c3cc4c(cc3c2-c2ccccc2)Oc2ccccc2O4)cc1
inactive: dose: 17.5 mg/kg/injection, schedule: Q01DX009 (ip), vehicle: Klucel (hydroxypropylcellulose) (HPC) 116 % of control | dose: 35.0 mg/kg/injection, schedule: Q01DX009 (ip), vehicle: Klucel (hydroxypropylcellulose) (HPC) 113 % of control | dose: 70.0 mg/kg/injection, schedule: Q01DX009 (ip), vehicle: Klucel (hydroxypropylcellulose) (HPC) 104 % of control

O=CN1CCN(c2ccc([N+](=O)[O-])c3no[n+]([O-])c23)CC1
inactive: dose: 1.87 mg/kg/injection, schedule: Q01DX009 (ip), vehicle: saline 107 % of control | dose: 1.87 mg/kg/injection, schedule: Q01DX009 (ip), vehicle: suspension in saline 94 % of control | dose: 3.75 mg/kg/injection, schedule: Q01DX009 (ip), vehicle: saline 92 % of control | dose: 3.75 mg/kg/injection, schedule: Q01DX009 (ip), vehicle: suspension in saline 113 % of control | dose: 7.5 mg/kg/injection, schedule: Q01DX009 (ip), vehicle: saline 86 % of control | dose: 7.5 mg/kg/injection, schedule: Q01DX009 (ip), vehicle: suspension in saline 116 % of control | dose: 15.0 mg/kg/injection, schedule: Q01DX009 (ip), vehicle: saline 91 % of control | dose: 15.0 mg/kg/injection, schedule: Q01DX009 (ip), vehicle: suspension in saline 116 % of control

O=C(Oc1ccccc1)c1cc2ccccc2cc1O
inactive: [8] 100 % of control | [9] 103 % of control | [10] 100 % of control

Nc1nc2ccc(CNc3ccc(C(=O)NC(CCC(=O)O)C(=O)O)cc3)nc2c(=O)[nH]1 (stereo not drawn)
inactive: dose: 50.0 mg/kg/injection, schedule: Q04DX003 (ip), vehicle: saline with Tween-80 102 % of control
active: dose: 100.0 mg/kg/injection, schedule: Q04DX003 (ip), vehicle: saline with Tween-80 155 % of control

O=NNc1ccc(S(=O)(=O)c2ccc(NN=O)cc2)cc1
inactive: dose: 3.12 mg/kg/injection, schedule: Q01DX009 (ip), vehicle: water 91 % of control | dose: 6.25 mg/kg/injection, schedule: Q01DX009 (ip), vehicle: water 110 % of control | dose: 12.5 mg/kg/injection, schedule: Q01DX009 (ip), vehicle: water 119 % of control | dose: 25.0 mg/kg/injection, schedule: Q01DX009 (ip), vehicle: water 116 % of control | dose: 37.5 mg/kg/injection, schedule: Q01DX009 (ip), vehicle: water 122 % of control | dose: 50.0 mg/kg/injection, schedule: Q01DX009 (ip), vehicle: water 119 % of control | dose: 75.0 mg/kg/injection, schedule: Q01DX009 (ip), vehicle: water 113 % of control

O=c1[nH]cnc2[nH]cc([N+](=O)[O-])c12
inactive: [8] 102 % of control | [9] 107 % of control | [10] 102 % of control | [11] 103 % of control

CC(C)(/C=N/O)N1CC=CCC1
inactive: dose: 12.5 mg/kg/injection, schedule: Q04DX002 (ip), vehicle: saline with Tween-80 101 % of control | dose: 25.0 mg/kg/injection, schedule: Q04DX002 (ip), vehicle: saline with Tween-80 100 % of control | dose: 50.0 mg/kg/injection, schedule: Q04DX002 (ip), vehicle: saline with Tween-80 97 % of control

O=[N+]([O-])c1ccc(SC(=S)N(c2ccccc2)c2ccccc2)c([N+](=O)[O-])c1
inactive: dose: 6.25 mg/kg/injection, schedule: Q01DX009 (ip), vehicle: Klucel (hydroxypropylcellulose) (HPC) 104 % of control | [4] 102 % of control | [5] 102 % of control | [6] 102 % of control

O=C1CCCc2[nH]c3ccc(Cl)cc3c21
inactive: [1] 92 % of control | [2] 99 % of control | [3] 92 % of control

Cc1ccc(NC(=O)CO)cc1Cl
inactive: [11] 103 % of control | [12] 103 % of control | [13] 116 % of control

COc1cc(C=Nc2c[nH]c(=O)[nH]c2=O)ccc1O
inactive: [11] 93 % of control | [12] 96 % of control | [13] 98 % of control

CCc1nc(N)nc(N)c1-c1ccc(NCCN)c(N)c1
inactive: dose: 12.5 mg/kg/injection, schedule: Q01DX005 (ip), vehicle: Klucel (hydroxypropylcellulose) (HPC) 104 % of control | dose: 25.0 mg/kg/injection, schedule: Q01DX005 (ip), vehicle: Klucel (hydroxypropylcellulose) (HPC) 101 % of control | dose: 50.0 mg/kg/injection, schedule: Q01DX005 (ip), vehicle: Klucel (hydroxypropylcellulose) (HPC) 103 % of control and 107 % of control

CC(=O)C(Cl)c1ccccc1Cl (stereo not drawn)
inactive: [5] 111 % of control | [6] 107 % of control and 113 % of control | [7] 109 % of control

Cc1ccc([N+](=O)[O-])cc1I
inactive: [6] 99 % of control | [7] 99 % of control | dose: 200.0 mg/kg/injection, schedule: Q01DX009 (ip), vehicle: Klucel (hydroxypropylcellulose) (HPC) 100 % of control

CC1(CSc2ccccc2)CC(=O)N1 (stereo not drawn)
inactive: dose: 50.0 mg/kg/injection, schedule: Q01DX009 (ip), vehicle: suspension in saline 111 % of control | dose: 100.0 mg/kg/injection, schedule: Q01DX009 (ip), vehicle: suspension in saline 98 % of control | dose: 200.0 mg/kg/injection, schedule: Q01DX009 (ip), vehicle: suspension in saline 99 % of control
